Experimental data as given in publication PMC3070799 (Neuropharmacology, 2011).
Read-outs that look alike come from different tables or passages of the source.

Legend:
human 5-HT3AB receptors = molecular target: T1, human 5-HT3AB receptors (Homo sapiens, UniProt O95264+P46098); assay type: binding
T1 construct: expressed in transfected cells; host or cells: Xenopus laevis oocytes (cRNA from pGEMHE)
T1 sequence (P46098 24-478): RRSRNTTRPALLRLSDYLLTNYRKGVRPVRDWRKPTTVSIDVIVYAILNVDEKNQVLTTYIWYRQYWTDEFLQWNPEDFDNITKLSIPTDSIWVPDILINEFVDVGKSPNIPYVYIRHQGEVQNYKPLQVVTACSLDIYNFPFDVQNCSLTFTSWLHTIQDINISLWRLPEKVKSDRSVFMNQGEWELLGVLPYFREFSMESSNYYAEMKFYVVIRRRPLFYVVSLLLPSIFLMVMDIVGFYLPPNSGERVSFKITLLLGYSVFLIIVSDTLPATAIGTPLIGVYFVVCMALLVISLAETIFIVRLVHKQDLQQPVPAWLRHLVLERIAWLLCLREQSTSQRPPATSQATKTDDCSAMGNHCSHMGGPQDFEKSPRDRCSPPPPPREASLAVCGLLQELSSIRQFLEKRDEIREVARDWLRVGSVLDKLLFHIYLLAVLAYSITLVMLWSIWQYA
T1 sequence (O95264 22-441): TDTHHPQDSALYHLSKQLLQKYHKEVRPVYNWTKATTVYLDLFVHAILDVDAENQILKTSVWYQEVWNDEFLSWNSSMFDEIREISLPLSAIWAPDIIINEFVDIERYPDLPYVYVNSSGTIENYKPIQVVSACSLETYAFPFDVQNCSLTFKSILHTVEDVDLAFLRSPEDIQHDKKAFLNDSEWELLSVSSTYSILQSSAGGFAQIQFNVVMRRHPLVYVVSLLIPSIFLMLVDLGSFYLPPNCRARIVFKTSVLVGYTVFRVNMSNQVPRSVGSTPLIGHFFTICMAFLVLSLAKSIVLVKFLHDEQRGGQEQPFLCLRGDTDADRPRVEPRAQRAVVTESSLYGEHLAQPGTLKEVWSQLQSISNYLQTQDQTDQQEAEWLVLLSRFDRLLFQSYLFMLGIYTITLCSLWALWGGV
Procedure: (§1) Human embryonic kidney (HEK) 293 cells were maintained on 90 mm tissue culture plates at 37 °C and 7% CO2 in a humidified atmosphere. They were cultured in DMEM:F12 with GlutaMAX™ I media (Dulbecco’s Modified Eagle’s Medium /Nutrient Mix F12 (1:1), Invitrogen, Paisley, UK) containing 10% foetal calf serum. For radioligand binding studies, cells in 90 mm dishes were transfected using polyethyleneimine (PEI): 30 μl PEI (1 mg /ml), 5 μl cDNA and 1 ml DMEM were incubated for 10 min at room temperature, added drop wise to a 80–90% confluent plate, and incubated for 3–4 days before use.
(§2) Competition binding (8 point) was performed on at least three separate plates of transfected cells. […] Reactions were incubated for at least 1 h at 4 °C and terminated by vacuum filtration using a Brandel cell harvester onto GF/B filters pre-soaked in 0.3% polyethyleneimine. Radioactivity was determined by scintillation counting using a Beckman BCLS6500 (Fullerton, California, USA). Data were analysed by iterative curve fitting (GraphPad Prism v3.02) according to the equation:(5) BL=Bmin+Bmax−Bmin/1+10^nH(logL50−logL) where L is the concentration of ligand present; BL is the binding in the presence of ligand concentration L; Bmin is the binding when L = 0; Bmax is the binding when L = ∞, L50 is the concentration of L which gives a binding equal to (Bmax + Bmin)/2; and nH is the Hill coefficient. Results are presented as mean ± S.E.M.. Statistical analysis was performed using ANOVA in conjunction with a Dunnett’s post-hoc test.

human 5-HT3A receptors = molecular target: T2, human 5-HT3A receptors (Homo sapiens, UniProt P46098); assay type: binding
T2 construct: expressed in transfected cells; host or cells: Xenopus laevis oocytes (cRNA from pGEMHE)
T2 sequence (P46098 24-478): T1 sequence (P46098 24-478)
Procedure: as §1, §2

mouse 5-HT3A = molecular target: T3, mouse 5-HT3A (Mus musculus, UniProt P23979); assay: Granisetron competition binding
T3 construct: expressed in transfected cells
T3 sequence (P23979 24-483 isoform P23979-2 limits assumed): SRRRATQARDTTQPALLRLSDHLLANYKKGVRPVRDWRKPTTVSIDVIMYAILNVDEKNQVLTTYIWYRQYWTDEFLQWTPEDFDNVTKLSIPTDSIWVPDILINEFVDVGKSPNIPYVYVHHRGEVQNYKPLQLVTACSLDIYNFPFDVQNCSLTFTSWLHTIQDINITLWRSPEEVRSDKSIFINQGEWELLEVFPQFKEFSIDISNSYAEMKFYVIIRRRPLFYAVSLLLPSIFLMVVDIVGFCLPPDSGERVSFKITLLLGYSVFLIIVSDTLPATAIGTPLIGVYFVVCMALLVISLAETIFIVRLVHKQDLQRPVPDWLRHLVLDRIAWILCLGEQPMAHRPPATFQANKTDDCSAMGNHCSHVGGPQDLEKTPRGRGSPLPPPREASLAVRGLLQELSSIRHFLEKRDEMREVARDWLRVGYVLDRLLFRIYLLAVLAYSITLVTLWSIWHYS
Procedure: as §2

mouse 5-HT3AB = molecular target: T4, mouse 5-HT3AB (Mus musculus, UniProt P23979+Q9JHJ5); assay: Granisetron competition binding
T4 construct: expressed in transfected cells
T4 sequence (P23979 24-483 isoform P23979-2 limits assumed): T3 sequence (P23979 24-483 isoform P23979-2 limits assumed)
T4 sequence (Q9JHJ5 22-437): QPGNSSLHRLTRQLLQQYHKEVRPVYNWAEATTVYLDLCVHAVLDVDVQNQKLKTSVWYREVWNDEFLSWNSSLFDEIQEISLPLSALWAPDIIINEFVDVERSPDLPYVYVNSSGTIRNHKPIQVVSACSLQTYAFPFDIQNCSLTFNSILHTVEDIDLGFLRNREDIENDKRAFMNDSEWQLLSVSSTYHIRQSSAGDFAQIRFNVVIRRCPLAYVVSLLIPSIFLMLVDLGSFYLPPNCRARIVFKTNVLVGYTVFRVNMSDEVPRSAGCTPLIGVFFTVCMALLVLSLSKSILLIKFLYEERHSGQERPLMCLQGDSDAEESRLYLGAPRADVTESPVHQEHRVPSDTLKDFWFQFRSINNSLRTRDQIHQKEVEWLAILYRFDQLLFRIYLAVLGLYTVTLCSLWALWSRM
Procedure: as §2

glycine α2 receptors = test system: glycine α2 receptors; parameters: method as in earlier work; settings: more potent than PTN; ref Chen et al., 2006; Curtis and Johnston, 1974; Yang et al., 2007; cited from earlier work
glycine α1 receptors = molecular target: glycine α1 receptors; parameters: method as in Yang et al., 2007; settings: ref Yang et al., 2007; cited from earlier work
glycine α1β receptors = molecular target: glycine α1β receptors; parameters: method as in Yang et al., 2007; settings: ref Yang et al., 2007; cited from earlier work
GABAA receptor = test system: GABAA receptor; parameters: method as in earlier work; settings: more potent than PTN; ref Chen et al., 2006; Curtis and Johnston, 1974; Yang et al., 2007; cited from earlier work

Row | Compound | Effect on binding of [3H]granisetron (1 nM) (human 5-HT3AB receptors; compound 2.5 mM) | Effect on binding of [3H]granisetron (1 nM) (human 5-HT3A receptors; compound 2.5 mM) | Displacement of granisetron (0.5 nM) (mouse 5-HT3A; compound 2.5 mM) | Displacement of granisetron (0.5 nM) (mouse 5-HT3AB; compound 2.5 mM) | potency relative to PTN (glycine α2 receptors) [fold] | Effect on binding of [3H]granisetron (1 nM) (human 5-HT3AB receptors; compound 5 mM) | Effect on binding of [3H]granisetron (1 nM) (human 5-HT3A receptors; compound 5 mM) | IC50 (glycine α1 receptors) [µM] | IC50 (glycine α1β receptors) [µM] | Displacement of granisetron (0.5 nM) (mouse 5-HT3A; compound 5 mM) | Displacement of granisetron (0.5 nM) (mouse 5-HT3AB; compound 5 mM) | potency relative to PTN (GABAA receptor) [fold] | Effect on binding of [3H]granisetron (1 nM) (human 5-HT3AB receptors) | Effect on binding of [3H]granisetron (1 nM) (human 5-HT3A receptors)
1 | ginkgolide B [GB] | not affected | not affected | not displaced | not displaced |  |  |  |  |  |  |  |  |  | 
2 | C=C(C)[C@@H]1[C@H]2OC(=O)[C@@H]1[C@]1(O)C[C@H]3O[C@]34C(=O)O[C@H]2[C@]14C [PXN, picrotoxinin] |  |  |  |  | ~30 | not affected | not affected | ~5 | ~30 | not displaced | not displaced | ~50 |  | 
3 | CC(C)(C)[C@]1(O)CC2OC(=O)CC23C(=O)OC2OC(=O)[C@H](O)C231 (stereo partly shown) [BB, bilobalide] |  |  | not displaced | not displaced |  |  |  |  |  |  |  |  | not affected | not affected
